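Tested at 5 concentrations; 48 h exposure; 96-well plates; endpoints linearly interpolated, else capped at highest concentration. TGI denotes the concentration required for complete inhibition of growth.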
Assays:
Test in all cases: growth of human tumour cells (NCI), 48 h
NCI/ADR-RES ovarian = test system: NCI/ADR-RES ovarian
HCC-2998 colon = test system: HCC-2998 colon
MDA-N = test system: MDA-N
HOP-62 NSCLC = test system: HOP-62 NSCLC
OVCAR-3 ovarian = test system: OVCAR-3 ovarian
DU-145 prostate = test system: DU-145 prostate
CAKI-1 renal = test system: CAKI-1 renal
SF-268 CNS = test system: SF-268 CNS
KM12 colon = test system: KM12 colon
UACC-62 melanoma = test system: UACC-62 melanoma
MDA-MB-231 breast = test system: MDA-MB-231 breast
SK-OV-3 ovarian = test system: SK-OV-3 ovarian
ACHN renal = test system: ACHN renal
SF-295 CNS = test system: SF-295 CNS
UO-31 renal = test system: UO-31 renal
RPMI-8226 leukemia = test system: RPMI-8226 leukemia
EKVX NSCLC = test system: EKVX NSCLC
MALME-3M melanoma = test system: MALME-3M melanoma
HS 578T breast = test system: HS 578T breast
OVCAR-4 ovarian = test system: OVCAR-4 ovarian
NCI-H460 lung = test system: NCI-H460 lung
MCF7 breast = test system: MCF7 breast
K-562 leukemia = test system: K-562 leukemia
BT-549 breast = test system: BT-549 breast
HOP-92 NSCLC = test system: HOP-92 NSCLC
NCI-H23 lung = test system: NCI-H23 lung
TK-10 renal = test system: TK-10 renal
OVCAR-5 ovarian = test system: OVCAR-5 ovarian
HCT-15 colon = test system: HCT-15 colon
SK-MEL-28 melanoma = test system: SK-MEL-28 melanoma
SK-MEL-5 melanoma = test system: SK-MEL-5 melanoma
NCI-H522 lung = test system: NCI-H522 lung
OVCAR-8 ovarian = test system: OVCAR-8 ovarian
U251 CNS = test system: U251 CNS
UACC-257 melanoma = test system: UACC-257 melanoma
SW-620 colon = test system: SW-620 colon
MOLT-4 leukemia = test system: MOLT-4 leukemia
A549 NSCLC = test system: A549 NSCLC
HCT-116 colon = test system: HCT-116 colon
MDA-MB-435 = test system: MDA-MB-435
SK-MEL-2 melanoma = test system: SK-MEL-2 melanoma
HT29 colon = test system: HT29 colon
RXF 393 renal = test system: RXF 393 renal
A498 renal = test system: A498 renal
SNB-75 CNS = test system: SNB-75 CNS
IGROV1 ovarian = test system: IGROV1 ovarian
786-0 renal = test system: 786-0 renal
SNB-19 CNS = test system: SNB-19 CNS
M14 melanoma = test system: M14 melanoma
COLO 205 colon = test system: COLO 205 colon
PC-3 prostate = test system: PC-3 prostate
NCI-H226 lung = test system: NCI-H226 lung
SN12C renal = test system: SN12C renal
CCRF-CEM leukemia = test system: CCRF-CEM leukemia
SF-539 CNS = test system: SF-539 CNS
LOX IMVI melanoma = test system: LOX IMVI melanoma
HL-60(TB) leukemia = test system: HL-60(TB) leukemia
T-47D breast = test system: T-47D breast

Cc1cc(-c2ccc(C(=O)O)[nH]2)on1
TGI (NCI/ADR-RES ovarian): 75.9 µM
TGI (HCC-2998 colon): > 100 µM
TGI (MDA-N): 23.7 µM
TGI (HOP-62 NSCLC): > 100 µM
TGI (OVCAR-3 ovarian): > 100 µM
TGI (DU-145 prostate): > 100 µM
TGI (CAKI-1 renal): > 100 µM
TGI (SF-268 CNS): > 100 µM
TGI (KM12 colon): > 100 µM
TGI (UACC-62 melanoma): > 100 µM
TGI (MDA-MB-231 breast): > 100 µM
TGI (SK-OV-3 ovarian): > 100 µM
TGI (ACHN renal): > 100 µM
TGI (SF-295 CNS): > 100 µM
TGI (UO-31 renal): > 100 µM
TGI (RPMI-8226 leukemia): > 100 µM
TGI (EKVX NSCLC): > 100 µM
TGI (MALME-3M melanoma): > 100 µM
TGI (HS 578T breast): > 100 µM
TGI (OVCAR-4 ovarian): > 100 µM
TGI (NCI-H460 lung): > 100 µM
TGI (MCF7 breast): > 100 µM
TGI (K-562 leukemia): > 100 µM
TGI (BT-549 breast): > 100 µM
TGI (HOP-92 NSCLC): > 100 µM
TGI (NCI-H23 lung): > 100 µM
TGI (TK-10 renal): > 100 µM
TGI (OVCAR-5 ovarian): > 100 µM
TGI (HCT-15 colon): > 100 µM
TGI (SK-MEL-28 melanoma): > 100 µM
TGI (SK-MEL-5 melanoma): > 100 µM
TGI (NCI-H522 lung): > 100 µM
TGI (OVCAR-8 ovarian): > 100 µM
TGI (U251 CNS): > 100 µM
TGI (UACC-257 melanoma): > 100 µM
TGI (SW-620 colon): > 100 µM
TGI (MOLT-4 leukemia): > 100 µM
TGI (A549 NSCLC): > 100 µM
TGI (HCT-116 colon): > 100 µM
TGI (MDA-MB-435): > 100 µM
TGI (SK-MEL-2 melanoma): > 100 µM
TGI (HT29 colon): > 100 µM
TGI (RXF 393 renal): > 100 µM
TGI (A498 renal): > 100 µM
TGI (SNB-75 CNS): > 100 µM
TGI (IGROV1 ovarian): > 100 µM
TGI (786-0 renal): > 100 µM
TGI (SNB-19 CNS): > 100 µM
TGI (M14 melanoma): > 100 µM
TGI (COLO 205 colon): > 100 µM
TGI (PC-3 prostate): > 100 µM

NCc1ccc(-c2ccc(-c3ccc(-c4ccc(CN)s4)s3)s2)s1
TGI (NCI-H226 lung): > 100 µM
TGI (NCI/ADR-RES ovarian): > 100 µM
TGI (HCC-2998 colon): > 100 µM
TGI (MDA-N): > 100 µM
TGI (HOP-62 NSCLC): > 100 µM
TGI (OVCAR-3 ovarian): > 100 µM
TGI (DU-145 prostate): > 100 µM
TGI (CAKI-1 renal): > 100 µM
TGI (KM12 colon): > 100 µM
TGI (UACC-62 melanoma): > 100 µM
TGI (MDA-MB-231 breast): > 100 µM
TGI (SK-OV-3 ovarian): > 100 µM
TGI (ACHN renal): > 100 µM
TGI (SF-295 CNS): > 100 µM
TGI (UO-31 renal): > 100 µM
TGI (RPMI-8226 leukemia): > 100 µM
TGI (SN12C renal): > 100 µM
TGI (EKVX NSCLC): > 100 µM
TGI (MALME-3M melanoma): > 100 µM
TGI (OVCAR-4 ovarian): > 100 µM
TGI (MCF7 breast): > 100 µM
TGI (K-562 leukemia): > 100 µM
TGI (CCRF-CEM leukemia): > 100 µM
TGI (HOP-92 NSCLC): > 100 µM
TGI (SF-539 CNS): > 100 µM
TGI (NCI-H23 lung): > 100 µM
TGI (TK-10 renal): > 100 µM
TGI (OVCAR-5 ovarian): > 100 µM
TGI (HCT-15 colon): > 100 µM
TGI (SK-MEL-28 melanoma): > 100 µM
TGI (LOX IMVI melanoma): > 100 µM
TGI (SK-MEL-5 melanoma): > 100 µM
TGI (NCI-H522 lung): > 100 µM
TGI (OVCAR-8 ovarian): > 100 µM
TGI (U251 CNS): > 100 µM
TGI (UACC-257 melanoma): > 100 µM
TGI (SW-620 colon): > 100 µM
TGI (MOLT-4 leukemia): > 100 µM
TGI (A549 NSCLC): > 100 µM
TGI (HCT-116 colon): > 100 µM
TGI (MDA-MB-435): > 100 µM
TGI (SK-MEL-2 melanoma): > 100 µM
TGI (HT29 colon): > 100 µM
TGI (HL-60(TB) leukemia): > 100 µM
TGI (T-47D breast): > 100 µM
TGI (RXF 393 renal): > 100 µM
TGI (A498 renal): > 100 µM
TGI (SNB-75 CNS): > 100 µM
TGI (IGROV1 ovarian): > 100 µM
TGI (786-0 renal): > 100 µM
TGI (SNB-19 CNS): > 100 µM
TGI (M14 melanoma): > 100 µM
TGI (COLO 205 colon): > 100 µM
TGI (PC-3 prostate): > 100 µM

Reference: PubChem BioAssay (NCI)
